Usually EC50 stands for the concentration that produces a half-maximal response. The Ki is the equilibrium dissociation constant of an inhibitor or competing ligand from its target.

The test system of series [1] is rat primary hippocampal neurons. Briefly: Neurotoxic effect of Aβ1-42 assemblies, MTT viability. Type of series: cell-based. Conditions: 20 hr. How it is done: (§1) Viability of cells was measured by MTT assay. MTT (3-(4,5-Dimethylthiazol-2-yl)-2,5-diphenyltetrazolium bromide) is a tetrazolium salt that is cleaved to formazan by the succinate dehydrogenase, which is only active in viable cells. After solubilization of the formazan, the amount of dye can be quantified with a microplate reader at 570 nm along with a reference of 630 nm. For MTT assay, 5×104 primary rat hippocampal neurons from 18-day-old embryonic Sprague-Dawley rat brains were plated on each well of 24-well plates coated with poly-D-lysine. After treatment, the cells were washed with 1×PBS and were incubated with 200 μl of 1 mg/ml MTT solution (Sigma, USA) at 37° C. for 2 hr. Then the MTT-solution was removed and the cells were lysed with 200 μl isopropanol containing 0.04 M HCl and 160 mM NaOH for 10 min. Finally, the reading was done at 570 nm and 630 nm. All the samples were done in triplicates and the data was represented as the percentage of control.
To assess the neurotoxic effect of different sized oligomers, rat primary hippocampal neurons were treated with variable concentrations of these Aβ1-42 species for 20 hr. Viability of the treated cells was compared to untreated cells using the MTT assay.

In series [2] the test system is primary rat hippocampal neurons. Kind of series: Neuroprotection against ASPD induced toxicity, MTT, primary neurons. The format is cell-based. On the procedure:
as §1
All studies used 50 nM ASPDs. The viability of the cells were measured by the MTT assay.

The test system of series [3] is differentiated human SH-SY5Y cells. Kind of series: Neuroprotection against ASPD, MTT, SH-SY5Y cells. Type of series: cell-based. Conditions: ASPD alone.
The subject of series [4] is PKC-ε. Briefly: PKC-ε level in primary neurons (immunofluorescence, Western Blot). Type of series: cell-based, rat. On the procedure: (§2) Cells were harvested in homogenizing buffer containing 10 mM Tris-Cl (pH 7.4), 1 mM PMSF (phenylmethylsulfonyl fluoride), 1 mM EGTA, 1 mM EDTA, 50 mM NaF, and 20 μM leupeptin and were lysed by sonication. The homogenate was centrifuged at 100,000×g for 15 min at 4° C. to obtain the cytosolic fraction (supernatant) and membrane (pellet). The pellet was resuspended in the homogenizing buffer by sonication. Protein concentration was measured using the Coomassie Plus (Bradford) Protein Assay kit (Pierce, USA). Following quantification, 20 μg of protein from each sample was subjected to SDS-PAGE analysis in 4-20% gradient Tris-Glycine gel (Invitrogen, USA). The separated protein was then transferred to nitrocellulose membrane. The membrane was blocked with BSA at room temperature for 15 min and was incubated with primary antibody over night at 4° C. After the incubation, it was washed three times with TBS-T (Tris Buffered saline-Tween 20) and further incubated with alkaline phosphatase conjugated secondary antibody (Jackson Immunoresearch Laboratories, USA) at 1:10,000 dilution for 45 min. The membrane was finally washed three times with TBS-T and developed using the 1-step NBT-BCIP substrate (Pierce, USA). Western Blot was imaged in the ImageQuant RT-ECL (GE Life Sciences, Piscataway, N.J.) and densitometric quantification was performed using the IMAL software (Blanchette Rockefeller Neurosciences Institute, Morgantown, W. Va.). For translocation assays, PKC activation was represented as the percentage of total protein in the membrane (membrane/cytosol+membrane).
Cells were grown in two chambered slides (Nunc, USA) at low density. For immunofluorescence staining, the cells were washed with PBS (pH 7.4) and fixed with 4% paraformaldehyde for 4 min. Following fixation, the cells were blocked and permeabilized with 5% serum and 0.3% Triton X 100 in 1×PBS for 30 min. […] Six individual fields at 63× oil lens magnification were analyzed for the mean fluorescence intensity (MFI) in each channel. […]
For orientation: A western blot detects proteins with antibodies after separation by electrophoresis.

Series [5] has as its system PKC-ε. Kind of series: PKC-ε translocation to membrane in SH-SY5Y cells (Western blot). The format is cell-based, human. The conditions noted are these: ASPD; ADDL at 20-fold higher concentrations. On the procedure:
as §2
Equal amounts of proteins were loaded in each lane (20 μg) for both the cytosol and membrane fractions. Activation of PKC was calculated as the percentage of total PKC in the membrane (membrane/cytosol+membrane).

For series [6], the system named is PKC-ε. Kind of series: PKC-ε mRNA by RT-PCR in primary rat hippocampal neurons. The format is cell-based. Conditions: controls and ASPD-treated cells. On the procedure: RNA was isolated from the cells using Trizol reagent (Invitrogen, USA) following the manufacturer's protocol. Briefly, 5 μg of total RNA was reverse transcribed using oligo (dT) and Superscript III (Invitrogen, USA) at 50° C. for 1 hr. Two μl of the cDNA product was amplified using primers for PKC-ε (Forward Primer—[…], Reverse primer—[…]), and β-tubulin (Forward Primer—[…], Reverse primer—[…]) (Origene, Rockville, Md.) for 25 cycles following standard PCR protocols and 55° C. annealing temperature. The PCR amplicons were analyzed in an E-Gel (Invitrogen, USA). The gel image was documented using a Fuji Image gel scanner (FLA-9000, Fuji Film) and densitometric quantification was performed using the IMAL software (Blanchette Rockefeller Neurosciences Institute, Morgantown, W. Va.). Data were represented as normalized ratio of PKC-ε OD (Optical Density) against β-tubulin OD for three independent experiments.
Primary neurons were treated with ASPD and/or DCPLA-ME. PKC-ε mRNA was quantified by RT-PCR as described above. RNA prepared from control and treated cultured primary rat hippocampal neurons were isolated and reverse transcribed. Individual cDNA was amplified for PKC-ε and β-actin. PKC-ε expression was normalized to β-actin.

Series [7] has as its system rat hippocampal primary neurons. Kind of series: Synaptic marker immunofluorescence in rat hippocampal primary neurons. The format is cell-based. How it is done: Cells were grown in two chambered slides (Nunc, USA) at low density. For immunofluorescence staining, the cells were washed with PBS (pH 7.4) and fixed with 4% paraformaldehyde for 4 min. Following fixation, the cells were blocked and permeabilized with 5% serum and 0.3% Triton X 100 in 1×PBS for 30 min. The cells were washed three times with 1×PBS and incubated with primary antibodies for 1 hr at 1:100 dilution. The incubation slides were then washed again three times in 1×PBS and were incubated with the FITC anti-rabbit IgG and Rhodamine anti-mouse IgG for 1 hr at 1:400 dilution. The cells were further washed and treated with DAPI (4′,6-diamidino-2′-phenylindole, dihydrochloride) (Thermo Scientific, USA) to stain the nucleus. Finally, the slides were washed and mounted in Pro Long Gold antifade mounting solution (Invitrogen, USA) and were viewed under the LSM 710 Meta confocal microscope (Zeiss) at 350 nm, 490 nm, and 540 nm excitation and 470 nm, 525 nm, and 625 nm emission for DAPI, FITC, and Rhodamine respectively. Six individual fields at 63× oil lens magnification were analyzed for the mean fluorescence intensity (MFI) in each channel. The co-localization correlation generated by the ZEN software (Zeiss).
To estimate the synaptic damage caused by the ASPDs on primary hippocampal neurons, the expression of synaptophysin (a presynaptic marker) and PSD-95 (a postsynaptic marker) was measured by immunofluorescence staining. […] Following a 20 hr incubation period, the cells were stained for nucleus, PSD-95, and synaptophysin. Expression levels were calculated as the change of percentage in mean fluorescence intensity compared to untreated cells.
Primary neurons, treated and untreated, were immunostained for MAP-2, synaptophysin, and PSD-95 to determine the synaptic integrity. […] Following a 20 hr incubation period, the cells were stained for MAP-2, PSD-95, and synaptophysin as described above.

Series [8] deals with synaptophysin. Kind of series: Synaptophysin Western Blot in primary rat hippocampal neurons. Type of series: cell-based. Conditions: ASPD. On the procedure: as §2
The target of series [9] is protein kinase C. The conditions noted are these: (−)-enantiomer; read-out: EC50 (potency); cited from earlier work.
The test system of series [10] is PKC. The conditions noted are these: cited from earlier work.
For series [11], the target named is T1, PKC.
T1 construct: Ki
The conditions noted are these: cited from earlier work.

The test system of series [12] is NCI 60 cell line screen. Conditions: cited from earlier work.
Series [13] deals with PKCα (Homo sapiens, UniProt P17252). Conditions: cited from earlier work.
Where [14] appears, read: 50 nM ASPD alone (ASPD) or with 100 nM DCPLA-ME, 20 hr.
The mark [15] stands for this setting: 50 nM ASPD alone (ASPD) or with RA and Bryostatin-1, 20 hr.

As to “ASPD: amylospheroids, Aβ1-42 assemblies retained by a 100 kDa filter”, in series [1] (0.5 nM), the “Viability of primary neuron (Mean ± SEM)” value is listed as 95.12 ± 0.733 % of control. Further, the “Viability of primary neuron (Mean ± SEM)” value in [1] (1 nM) is given as 89.64 ± 5.99 % of control. Further, the “Viability of primary neuron (Mean ± SEM)” value in [1] (2 nM) is given as 87.75 ± 0.94 % of control. In series [1] (5 nM), the “Viability of primary neuron (Mean ± SEM)” value is reported as 70.95 ± 1.89 % of control. In addition, in series [1] (10 nM), the “Viability of primary neuron (Mean ± SEM)” value is given as 68.68 ± 0.84 % of control. In addition, in series [1] (50 nM), the “Viability of primary neuron (Mean ± SEM)” value is 57.55 ± 3.35 % of control and the viability of neurons is 57.1±4.9%. Further, the “Viability of primary neuron (Mean ± SEM)” value in [1] (500 nM) is 52.94 ± 3.75 % of control. For the same compound, the “viability of primary neurons” value in [2] (50 nM ASPD alone, 20 hr) is 57.6±1.6%. In addition, the “viability (Example 25)” value in series [2] (50 nM ASPDs alone (ASPD) or with the treatment named, 24 hr) is on record as 57.61%±1.59. Also, the “viability compared to the untreated cells” value in series [3] came to 77.15±0.49%. For the same compound, in series [4] (primary neurons, 20 hr ASPD), the “PKC-ε immunofluorescence level compared to control” value was 60.81±5.85%. In [5], the PKC-ε membrane translocation worked out at 69.98±3.27% and the “reduction of PKC-ε translocation” value is on record as 46%. The “PKC-ε transcript levels (in words)” value in [6] is “did not change PKC-ε mRNA significantly”. Besides, in series [7] (setting [14]), the “MAP-2 expression (mean fluorescence intensity)” value turned out to be 40.7±6.2%, the “PSD-95 expression (mean fluorescence intensity)” value was 67.63±7.24% and the “synaptophysin expression (mean fluorescence intensity)” value is listed as 63.3±3.8%. Also, in series [7] (setting [15]), the “Mean fluorescence intensity of PSD-95” value is given as 8.16±1.21 and the “Mean fluorescence intensity of synaptophysin” value was found to be 9.74±2.5. In addition, in series [7] (50 nM ASPD, 20 hr), the “decrease of PSD-95 expression” value is given as 42%. In series [7] (50 nM ASPDs, 1 μM ADDLs, 20 hr), the “decrease in synaptophysin intensity” value is 40% and the “synaptophysin intensity compared to the control” value is recorded as 62.45±6.74%. For the same compound, in series [8], the “decrease of synaptophysin expression by Western Blot” value was 26% and the “synaptophysin expression by Western Blot” value was 73.30%±3.319.
As for `CCCCCCCCc1ccc2c3c(c[nH]c13)C[C@@H](CO)NC(=O)[C@H](C(C)C)N2C` [octylindolactam V, Octylindolactam V], the EC50 in series [9] is 29 nM.
Consider `CCC1CC1CC1CC1CC1CC1CC1CC1CC1CC1CC1CC1CCC(=O)O` (centres unmarked) [DHA-CP6], for which the effective concentration in series [10] is 10 nM.
Take `CC1=C[C@]23C(=O)[C@@H](C=C(COC(=O)c4ccccc4)[C@@H](O)[C@]2(O)[C@H]1OC(=O)c1ccccc1)[C@H]1[C@@H](C[C@H]3C)C1(C)C` [Ingenol 3,20-dibenzoate]: the Ki in series [11] is 240 nM.
On to EAVSLKPT, for which the “effect of inhibitor peptide on neuroprotection by DCPLA-ME” value in series [2] (added with DCPLA-ME, 50 nM ASPD) is reported as “blocked DCPLA-ME's protective effect”. Further, in series [4] (5 μM inhibitor), the “effect of inhibitor on PKC-ε protection by DCPLA-ME” value was “completely blocked”.
With `CC1=CC[C@H](C)C(C)(C)[C@@H]1/C=C/C(C)=C/CC[C@@]1(CO)[C@H](CCCO)/C(=C(/C)C=O)CC[C@]1(C)O` [Iripallidal], in series [12], the “GI50 (concentration required to inhibit growth by 50%)” value is recorded as “micromolar to nanomolar range”. The Ki in series [13] was 75.6 nM.
